Patent publication US10577346B2, “Benzobicycloalkane derivatives, their preparation and pharmaceutical use thereof” (priority 2016, dated 2020)

Tests used:
CYP3A4 = biological target: T1, CYP3A4 (Homo sapiens, UniProt P08684); test: Inhibition of CYP enzyme (CYP3A4, midazolam substrate, liver microsomes); type: in vitro ADME; details: for inhibition at 5 min, 1 μM: human, pH 7.4, midazolam (M) as probe substrate; for CYP3A4(M) inhibition rate/1 μM: midazolam (M) as probe substrate
T1 construct: from tissue; host or cells: liver microsomes
Description: Assay 3: Inhibition of CYP Enzyme
1. 0.1 M potassium phosphate buffer (K-buffer), pH 7.4 was preheated;
100 mM K-Buffer: 9.5 mL Stock A and 40.5 mL Stock B were mixed, brought to a total volume of 500 mL with Milli-Q water, and titrated to pH 7.4 of KOH or H3PO4;
Stock A (1 M monobasic potassium phosphate): 136.5 g of monobasic potassium phosphate was dissolved in 1 L of Milli-Q water; and
Stock B (1 M dibasic potassium phosphate): 174.2 g of dibasic potassium phosphate was dissolved in 1 L of Milli-Q water.
2. Serial dilutions of test compounds and reference inhibitors (400×) were prepared in a 96-well plate:
2.1 8 μL of 10 mM test compounds was transferred to 12 μL of ACN. 2.2 A separate inhibitor solution was prepared for reference: 8 μL of inhibitor DMSO stock was added with 12 μL of ACN.
2.3 A 1:3 serial dilution was prepared with a DMSO:ACN mixture (v/v: 40:60).
3. 4×NADPH cofactor (66.7 mg NADPH dissolved in 10 mL 0.1 M K-buffer, pH 7.4) was prepared.
4. 4× substrate (2 mL for each isoform) was prepared as indicated in the table below (Liver microsomes must be added on ice).
5. 0.2 mg/mL liver microsome solution (990 μL of 0.1 M K-buffer was added to each 10 μL of 20 mg/mL) was prepared on ice.
6. 200 μL of 0.2 mg/mL liver microsomes was added on ice to a 96-well plate and then 1 μL of test compound or reference compound was added into corresponding wells.
7. The following solutions were added to a 96-well plate (in duplicate) on ice:
7.1 30 μL of 2× test compounds and reference compound in 0.2 mg/mL liver microsome solution were added;
7.2 15 μL of 4× substrate solution was added.
8. The 96-well assay plate and NADPH solution were pre-heated at 37° C. for 5 minutes.
9. 15 μL of pre-heated 8 mM NADPH solution was added into the assay plates to initiate the reaction.
10. The 3A4 subtype was incubated at 37° C. for 5 min for.
11. The reaction was quenched by adding 120 μL of ACN containing an internal standard.
12. After quenching, the plates were shaked in a vibrator (IKA, MTS 2/4) for 5 min (600 rpm/min) and then centrifuged at 3, 750 rpm for 15 min (Allegra X-12R centrifuge).
13. After centrifugation, 50 μL of the supernatant from each well was taken into a 96-well plate containing 70 μL of wastons water and mixed for LC/MS analysis.

hERG potassium channel = biological target: T2, hERG potassium channel (Homo sapiens, UniProt Q12809); test: Inhibition of hERG potassium ion channel, manual whole-cell patch clamp in CHO hERG cells; type: cell-based; details: human, CHO cells stably expressing hERG
T2 construct: host or cells: CHO cells stably expressing hERG
Description: (§1) Assay 2: Inhibition of hERG Potassium Ion Channel
(§2) 2.1.1 Cells used in this experiment were CHO cell lines transfected with hERG cDNA and stably expressing hERG channels (supplied by Sophion Bioscience, Denmark), with cell progeny being P15. Cells were cultured in medium containing the following ingredients Invitrogen): Ham's F12 medium, 10% (v/v) inactivated fetal bovine serum, […] hygromycin B, and […] Geneticin.
(§3) 2.1.2 CHO hERG cells were grown in Petri dishes containing the above medium and cultured in an incubator of 5% CO2 at 37° C. CHO hERG cells were transferred onto round glass plates in Petri dishes and grown on the same culture medium and culture conditions as above 24 h to 48 h prior to the electrophysiological experiments. The density of CHO hERG cells on each round glass plate must meet the requirements that the vast majority of cells are independent and separate.
(§4) 2.2 Experimental Solution
(§5) The following solutions (recommended by Sophion) were used for electrophysiological recording. The reagents used in this test were provided by Sigma.
(§6) 2.3 Electrophysiological Recording System
(§7) In this experiment, whole-cell current recording was performed using a manual patch clamp system (HEKA EPC-10 signal amplification and digital conversion system, purchased from HEKA Electronic, Germany). The round glass slide of which surface CHO hERG cells were grown on was placed in an electrophysiological recording slot under an inverted microscope. Extracellular fluid was perfused continuously in the recording slot (approximately 1 ml per minute). Conventional whole-cell patch clamp current recording technique was used in the experiment. Unless otherwise specified, the experiments were performed at normal room temperature (25° C.). Cell patch clamp at −80 mV. Cell patch clamp voltage was depolarized to +20 mV to activate hERG potassium channel, and to −50 mV after 5 sec to eliminate inactivation and generate tail currents. The tail current peak was used as a value for hERG current. When the hERG potassium current recorded in the above steps became steady under continuous perfusion of the extracellular fluid in the recording slot, the subject drug to be tested could be added to the perfusion until the inhibition of the hERG current by the drug reached a steady state. Typically, the most recent three consecutive current recording lines were generally used as a measure to determine whether the state was stable. After reaching a steady state, it was perfused with extracellular fluid for washing until the hERG current returned to the value before the drug adding. One or more drugs, or multiple concentrations of the same drug, could be tested on a single cell but it was necessary to rinse with extracellular fluid before testing a different drug. Cisapride (purchased from Sigma) was used as a positive control in the experiments to ensure normal quality of the cells used.
(§8) 2.4 Treatment and Dilution of Compounds
(§9) The compound was first dissolved in DMSO to a concentration of 10 mM and then the compound was diluted 1000-fold to a final test concentration of 10 μM using extracellular fluid.
(§10) The final concentration of DMSO in the compound test solution was 0.1%. The test concentration of cisapride as a positive control was 0.1 μM. All stock solutions and test solutions were subjected to regular 5-10 minutes of sonication and shaking to ensure complete dissolution of the compound.
(§11) The test data were analyzed by the data analysis software provided by HEKA Patchmaster (V2x73.2), Microsoft Excel and Graphpad Prism 5.0.

[1] = biological target: T3, hERG potassium ion channel (Homo sapiens, UniProt Q12809); test: as above; type: cell-based; details: CHO cells stably expressing hERG
T3 construct: host or cells: CHO cells stably expressing hERG
Description: as §1, §2, §3, §4, §5, §6, §7, §8, §9, §10, §11

in vivo = details: male, SD, rat, 10 mg/kg, oral administration of dezocine in rats, Dezocine dosed at 10 mpk
Description: LC-MS/MS method was applied for the determination of the drug concentration in plasma at different times after the example compounds were administered via gavage to rats in order to study the pharmacokinetic behavior of the compounds of the disclosure in vivo in rats and evaluate their pharmacokinetic characteristics.
Test animals: healthy adult male SD rats (weight 200-300 g, 3, fasted), provided by SLAC company;
Administration and dosage: 16 mg/kg or 24 mg/kg, 10 mL/kg, 5% 1,2-propanediol (1,2-Propanediol, Shanghai Titan Technology Co., Ltd. Lot No.: P1057349)) was administered via oral gavage to SD rats;
Blood collection: firstly, the animals which were selected to meet the test requirements prior to administration were weighed and labelled. The rats were bound before the blood collection, about 150 μl of blood from each administered rat was taken at predetermined time points via orbital vein (blood was collected before administration and at 0.083, 0.25, 0.5, 1, 2, 4, 6, and 8 h after administration respectively, 9 time points in total). Blood was transferred to a 1.5 ml tube to which K2EDTA was added previously. The collected blood sample was put on wet ice, and centrifuged (2000 g, 5 min under 4° C.) to obtain plasma sample, the whole process of which was completed within 15 minutes after blood collection. All the samples were stored at approximately −70° C. until analysis. […]

[2] = cited from earlier work

T3 sequence (Q12809 whole entry): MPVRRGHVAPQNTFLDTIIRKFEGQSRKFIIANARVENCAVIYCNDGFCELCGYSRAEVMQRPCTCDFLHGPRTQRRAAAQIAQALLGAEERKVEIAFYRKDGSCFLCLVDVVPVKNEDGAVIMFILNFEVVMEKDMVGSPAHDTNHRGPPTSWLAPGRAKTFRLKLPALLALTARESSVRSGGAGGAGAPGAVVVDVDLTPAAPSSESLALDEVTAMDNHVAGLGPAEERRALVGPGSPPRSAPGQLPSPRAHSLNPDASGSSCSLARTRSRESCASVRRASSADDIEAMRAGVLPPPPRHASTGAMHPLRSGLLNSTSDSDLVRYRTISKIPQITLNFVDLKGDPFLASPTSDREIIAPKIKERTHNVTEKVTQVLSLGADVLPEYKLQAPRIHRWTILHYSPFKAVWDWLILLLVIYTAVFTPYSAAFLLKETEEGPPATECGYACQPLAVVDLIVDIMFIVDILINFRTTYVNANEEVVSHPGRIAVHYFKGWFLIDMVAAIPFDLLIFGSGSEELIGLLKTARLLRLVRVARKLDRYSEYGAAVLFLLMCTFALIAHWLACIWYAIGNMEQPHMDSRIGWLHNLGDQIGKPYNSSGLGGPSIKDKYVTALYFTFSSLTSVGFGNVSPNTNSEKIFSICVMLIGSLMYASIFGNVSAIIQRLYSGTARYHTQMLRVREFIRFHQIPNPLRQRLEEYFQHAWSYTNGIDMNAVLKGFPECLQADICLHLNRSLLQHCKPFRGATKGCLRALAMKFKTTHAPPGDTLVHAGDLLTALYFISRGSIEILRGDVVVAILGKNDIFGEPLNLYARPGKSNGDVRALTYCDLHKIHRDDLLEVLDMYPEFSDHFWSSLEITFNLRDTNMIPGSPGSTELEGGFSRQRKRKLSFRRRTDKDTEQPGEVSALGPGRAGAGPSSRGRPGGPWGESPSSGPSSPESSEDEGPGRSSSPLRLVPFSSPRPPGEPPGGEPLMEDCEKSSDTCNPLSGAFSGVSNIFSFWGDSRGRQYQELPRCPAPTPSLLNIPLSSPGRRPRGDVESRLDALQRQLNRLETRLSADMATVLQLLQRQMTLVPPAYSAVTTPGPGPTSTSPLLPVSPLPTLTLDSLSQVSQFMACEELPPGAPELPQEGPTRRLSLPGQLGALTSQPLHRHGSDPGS
T1 sequence (P08684 whole entry): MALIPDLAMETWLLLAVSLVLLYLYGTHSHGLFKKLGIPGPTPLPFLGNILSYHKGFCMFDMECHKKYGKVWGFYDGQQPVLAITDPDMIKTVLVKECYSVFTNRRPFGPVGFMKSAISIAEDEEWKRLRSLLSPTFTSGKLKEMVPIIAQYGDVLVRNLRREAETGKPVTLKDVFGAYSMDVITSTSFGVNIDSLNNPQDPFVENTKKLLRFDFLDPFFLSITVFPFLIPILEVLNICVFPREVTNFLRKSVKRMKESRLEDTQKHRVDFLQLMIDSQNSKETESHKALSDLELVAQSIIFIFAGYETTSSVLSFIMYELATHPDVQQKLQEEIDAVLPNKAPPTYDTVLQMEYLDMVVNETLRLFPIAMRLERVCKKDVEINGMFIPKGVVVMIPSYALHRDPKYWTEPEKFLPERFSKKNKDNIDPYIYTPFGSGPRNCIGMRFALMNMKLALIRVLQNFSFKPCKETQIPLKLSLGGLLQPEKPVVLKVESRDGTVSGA
T2 sequence (Q12809 whole entry): as the sequence (Q12809 whole entry) above

Compound	hERG inhibition rate/10 μM [1] [%]	CYP3A4(M) inhibition rate/1 μM (CYP3A4) [%]	other results
CN1CCN(C(=O)Oc2ccc3c(c2)[C@@]2(C)CCCCC[C@@H](C3)[C@@H]2N)CC1 [Compound Z-2]			inhibition at 5 min, 1 μM (CYP3A4): 19.8%
COCCOCCN(C)C(=O)Oc1ccc2c(c1)[C@@]1(C)CCCCC[C@@H](C2)[C@@H]1N [Compound Z-14]			inhibition at 5 min, 1 μM (CYP3A4): 49.5%
COCCCNC(=O)Oc1ccc2c(c1)[C@@]1(C)CCCCC[C@@H](C2)[C@@H]1N [Compound Z-19]			inhibition at 5 min, 1 μM (CYP3A4): 33.6%
C[C@@]12CCCCC[C@@H](Cc3ccc(OC(=O)Nc4ccc(O)cc4)cc31)[C@@H]2N [Compound Z-23]			inhibition at 10 μM (hERG potassium channel): 71.5%; inhibition at 5 min, 1 μM (CYP3A4): 89.2%
C[C@@]12CCCCC[C@@H](Cc3ccc(OC(=O)Nc4ccc(F)cc4)cc31)[C@@H]2N [Compound Z-35]			inhibition at 5 min, 1 μM (CYP3A4): 88.1%
C[C@@]12CCCCC[C@@H](Cc3ccc(OC(=O)N4CCC(N5CCCCC5)CC4)cc31)[C@@H]2N [Compound Z-49]			inhibition at 10 μM (hERG potassium channel): 14.4%; inhibition at 5 min, 1 μM (CYP3A4): 7.28%
CN(CC(=O)O)C(=O)Oc1ccc2c(c1)[C@@]1(C)CCCCC[C@@H](C2)[C@@H]1N [Compound Z-100]			inhibition at 5 min, 1 μM (CYP3A4): 1.6%
C[C@@]12CCCCC[C@@H](Cc3ccc(OC(=O)N4CCC(N5CCOCC5)CC4)cc31)[C@@H]2N [Compound Z-109]	17.20	6.6	
C[C@@]12CCCCC[C@@H](Cc3ccc(OC(=O)NC4CCOCC4)cc31)[C@@H]2N [Compound Z-110]	13.32	28.0	
COC1CN(C(=O)Oc2ccc3c(c2)[C@@]2(C)CCCCC[C@@H](C3)[C@@H]2N)C1 [Compound Z-111]		45.7	
CCN(CCN(C)C)C(=O)Oc1ccc2c(c1)[C@@]1(C)CCCCC[C@@H](C2)[C@@H]1N [Compound Z-113]	16.02	28.6	
C[C@@]12CCCCC[C@@H](Cc3ccc(OC(=O)N4CC(O)C4)cc31)[C@@H]2N [Compound Z-114]	17.07	11.8	
CC12CCCCCC(Cc3ccc(OC(=O)NC4CC(O)C4)cc31)C2N (stereo not drawn) [Compound Z-115]	12.90	18.0	
C[C@@]12CCCCC[C@@H](Cc3ccc(OC(=O)N4CCS(=O)(=O)CC4)cc31)[C@@H]2N [Compound Z-116]	11.22	14.2	
C[C@@]12CCCCC[C@@H](Cc3ccc(OC(=O)NC4COC4)cc31)[C@@H]2N [Compound Z-117]	20.59	23.8	
C[C@@]12CCCCC[C@@H](Cc3ccc(OC(=O)NCCO)cc31)[C@@H]2N [Compound Z-118]		8.8	
COc1ccc(NC(=O)Oc2ccc3c(c2)[C@@]2(C)CCCCC[C@@H](C3)[C@@H]2N)nc1 [Compound Z-119]	78		
C[C@@]12CCCCC[C@@H](Cc3ccc(OC(=O)NC4(CO)CC4)cc31)[C@@H]2N [Compound Z-122]	1.91	17.0	

Compound	hERG inhibition rate/10 μM [1] [%]	CYP3A4(M) inhibition rate/1 μM (CYP3A4) [%]	other results
CN(C)C1CCN(C(=O)Oc2ccc3c(c2)[C@@]2(C)CCCCC[C@@H](C3)[C@@H]2N)CC1 [Compound Z-123]	8.84	0	
C[C@@]12CCCCC[C@@H](Cc3ccc(OC(=O)N4CCC(O)CC4)cc31)[C@@H]2N [Compound Z-124]		19.6	
CC(=O)N1CCN(C(=O)Oc2ccc3c(c2)[C@@]2(C)CCCCC[C@@H](C3)[C@@H]2N)CC1 [Compound Z-125]		18.1	
CC(CO)NC(=O)Oc1ccc2c(c1)C1(C)CCCCCC(C2)C1N (stereo not drawn) [Compound Z-126]	4.92	3.6	
CN(CCO)C(=O)Oc1ccc2c(c1)[C@@]1(C)CCCCC[C@@H](C2)[C@@H]1N [Compound Z-127]	9.95	17.4	
C[C@@]12CCCCC[C@@H](Cc3ccc(OC(=O)N4CCC(CO)CC4)cc31)[C@@H]2N [Compound Z-128]		41.9	
CC1CNCCN1C(=O)Oc1ccc2c(c1)C1(C)CCCCCC(C2)C1N (stereo not drawn) [Compound Z-129]		4.0	
C[C@@]12CCCCC[C@@H](Cc3ccc(OC(=O)N4CCC(C(=O)O)CC4)cc31)[C@@H]2N [Compound Z-130]	3.24	13.0	
CCN(C(=O)Oc1ccc2c(c1)[C@@]1(C)CCCCC[C@@H](C2)[C@@H]1N)C1CCN(C)CC1 [Compound Z-131]	39.88	26.7	
COC(=O)C1CCCN(C(=O)Oc2ccc3c(c2)C2(C)CCCCCC(C3)C2N)C1 (stereo not drawn) [Compound Z-135]		21.3	
CC12CCCCCC(Cc3ccc(OC(=O)N4CCCC(C(=O)O)C4)cc31)C2N (stereo not drawn) [Compound Z-136]		0	
C[C@@]12CCCCC[C@@H](Cc3ccc(OC(=O)N4CCC4)cc31)[C@@H]2N [Compound Z-137]		45.3	
C[C@@]12CCCCC[C@@H](Cc3ccc(OC(=O)NC(CO)CO)cc31)[C@@H]2N [Compound Z-138]		0	
CN1CCC(NC(=O)Oc2ccc3c(c2)[C@@]2(C)CCCCC[C@@H](C3)[C@@H]2N)CC1 [Compound Z-140]		8.7	
CN(C(=O)Oc1ccc2c(c1)[C@@]1(C)CCCCC[C@@H](C2)[C@@H]1N)C1COC1 [Compound Z-141]		30.8	
CN(C)CCNC(=O)Oc1ccc2c(c1)[C@@]1(C)CCCCC[C@@H](C2)[C@@H]1N [Compound Z-144]		22.2	
C[C@@]12CCCCC[C@@H](Cc3ccc(O)cc31)[C@@H]2N [Dezocine, dezocine]			AUC (in vivo): 58.6 ng·h/mL; oral bioavailability [2]: ≤ 5%
